The source of these data is patent US4650803A, “Prodrugs of rapamycin” (University of Kansas, priority 1985, dated 1987).

A short description of one series: Solubility in water. The format is physicochemical.
A short description of series [1]: Human plasma stability study (37.5° C.). As to conditions: for half-life: human, plasma. The format is in vitro ADME. On the procedure: (§1) The plasma studies were done at three prodrug concentrations: 200, 100 and 50 μg/ml of prodrug. The experimental procedure was as follows: The compound to be tested was taken from a stock aqueous solution of 5 mg/ml and added to the plasma to give the desired prodrug concentration. […] Before centrifugation 200 μl of methanol was added to further precipitate the plasma proteins. The results are expressed in half-lives in hours.
(§2) The chemical and plasma studies were followed by HPLC using a RP C-18 column (150 mm) and a precolumn (50 mm). […] Chart speed was 1 inch/10 minutes.

A short description of series [2]: Rat plasma stability study (37.5° C.). The format is in vitro ADME, Sprague-Dawley male albino rats. As to conditions: for half-life: rat, plasma, read-out: t1/2 (plasma stability) (converted). The protocol: as §1, §2
Series [3] can be described thus: Rat liver homogenate stability study (37.5° C.). Type of series: in vitro ADME, male albino Sprague-Dawley rats. The conditions noted are these: 20% rat liver homogenate, pH 7.4, 50 μg/ml, read-out: t1/2 (liver homogenate stability) (converted). The protocol: (§3) The liver homogenate studies were done using livers freshly obtained from male albino Sprague-Dawley rats. A 20% liver homogenate was prepared in Sorensen's buffer at pH 7.4. Chemical stability studies of rapamycin and the two prodrugs of Examples 2 and 3 were carried out at concentrations of 20, 50 and 50 μg/ml respectively, at 37.5° C.

Series [4] in a line: Stability to light and to long stirring. Type of series: physicochemical.
Series [5] is described as follows: Products of decomposition/hydrolysis in plasma and homogenate studies (HPLC, TLC). The protocol: as §3
Series [6] in a line: Chemical stability study in buffers (hydrolysis half-life, HPLC). Type of series: physicochemical. The conditions noted are these: buffer, read-out: t1/2 (chemical stability) (converted). On the procedure: In the examples, chemical stability studies for rapamycin and the prodrugs were done at 20 μg/ml with an ionic strength of 0.5. Stabilities at pH 3.3 (0.05M acetate buffer) and pH 7.4 (0.05M phosphate buffer) were studied at 25° and 37.5° C. No antioxidants were added and the buffers were not deoxygenated.
as §2

For series [7] the following is noted: background statement; cited from earlier work.
The mark [8] stands for this setting: human plasma, 50 μg/ml, 37.5° C., read-out: t1/2 (plasma stability) (converted).

“Also recorded” adds a separate entry of the source. Where a name gives a salt, the structure may show the parent alone.

For the compound `CCN(CC)CCC(=O)O[C@@H]1/C(C)=C/[C@@H](C)C(=O)C[C@@H]([C@H](C)C[C@@H]2CC[C@@H](O)[C@H](OC)C2)OC(=O)[C@@H]2CCCCN2C(=O)C(=O)[C@]2(O)O[C@@H](CC[C@H]2C)C[C@H](OC)/C(C)=C/C=C/C=C/[C@@H](C)C[C@@H](C)C(=O)[C@@H]1OC` [Example 3, Mono-(28)-3-(N,N-Diethylamino)propionate Hydrochloride Salt Ester of Rapamycin], in the series “Solubility in water”, the solubility is > 50 mg/mL. Besides, the “half life of the prodrug compared with the others” value in series [1] was “the shortest”. Besides, the “time within which half of the prodrug decomposed into products including mainly rapamycin” value in series [1] is “two and one-half”. In addition, the half-life in series [1] (t1/2 (plasma stability)) is 150 min; in series [2] (100 μg/ml), 3480 min; in series [2] (200 μg/ml) it was 3600 min; in series [3], 222 min. Also, in series [4], the “stability on prolonged exposure to light” value is “unstable to prolonged exposure to light; also recorded: appears to discolor upon prolonged exposure to light”. Further, in series [5], the “observed product of hydrolysis / decomposition” value is recorded as “rapamycin being the only observed product of hydrolysis”.

Consider `CO[C@H]1C[C@@H]2CC[C@@H](C)[C@@](O)(O2)C(=O)C(=O)N2CCCC[C@H]2C(=O)O[C@H]([C@H](C)C[C@@H]2CC[C@@H](O)[C@H](OC)C2)CC(=O)[C@H](C)/C=C(\C)[C@@H](OC(=O)CN(C)C)[C@@H](OC)C(=O)[C@H](C)C[C@H](C)/C=C/C=C/C=C/1C` [Example 2, Methanesulfonic Acid Salt of Mono-(28)-N,N Dimethylglycinate Ester of Rapamycin], for which the solubility in “Solubility in water” was > 50 mg/mL. The half-life in series [6] (pH 3.3, pH 3.3, 25° C.) was 4380 min; in series [6] (pH 7.4, pH 7.4, 25° C.) it was 2700 min; in series [1] (setting [8]) it was 300 min; in series [1] (human plasma, 100 μg/ml, 37.5° C., read-out: t1/2 (plasma stability) (converted)), 288 min; in series [1] (human plasma, 200 μg/ml, 37.5° C., read-out: t1/2 (plasma stability) (converted)) it was 336 min; in series [2] (50 μg/ml), 108 min. The results for the half-life in series [2] (100 μg/ml), in series [2] (200 μg/ml) and in series [3] were 108 min, 150 min and 270 min, respectively. The “t1/2 (plasma stability)” value in series [1] (human plasma, 50 μg/ml, 37.5° C.) turned out to be 5.0 h; in series [2] (50 μg/ml), 1.75 h. Further, the “stability on prolonged exposure to light” value in series [4] is given as “slow discoloration of the material; also recorded: appears to discolor upon prolonged exposure to light”. The “stability to long stirring times” value in series [4] (salt form) is given as “unstable to long stirring times”.

Take `CO[C@H]1C[C@@H]2CC[C@@H](C)[C@@](O)(O2)C(=O)C(=O)N2CCCC[C@H]2C(=O)O[C@H]([C@H](C)C[C@@H]2CC[C@@H](O)[C@H](OC)C2)CC(=O)[C@H](C)/C=C(\C)[C@@H](O)[C@@H](OC)C(=O)[C@H](C)C[C@H](C)/C=C/C=C/C=C/1C` [Rapamycin, rapamycin]: the half-life is 2150 min in series [6] (pH 3.3, pH 3.3, 25° C.); 594 min in series [6] (pH 3.3, pH 3.3, 37.5° C.); 2860 min in series [6] (pH 7.4, pH 7.4, 25° C.); 612 min in series [6] (pH 7.4, pH 7.4, 37.5° C.); 180 min in series [1] (setting [8]); 170 min in series [2] (50 μg/ml). Also, in series [3], the half-life is 330 min. Also, the “further degradation (TLC)” value in series [5] (plasma and homogenate studies, TLC) is on record as “further degraded to other decomposition products”. Moreover, the Solubility in water in series [7] was 20 micrograms per milliliter.

For `CO[C@H]1C[C@@H]2CC[C@@H](C)[C@@](O)(O2)C(=O)C(=O)N2CCCC[C@H]2C(=O)O[C@H]([C@H](C)C[C@@H]2CC[C@@H](O)[C@H](OC)C2)CC(=O)[C@H](C)/C=C(\C)[C@@H](OC(=O)CCCN2CCCC2)[C@@H](OC)C(=O)[C@H](C)C[C@H](C)/C=C/C=C/C=C/1C` [Example 4, Mono-(28)-4'-(N-pyrrolidino)-butyrate Hydrochloride Salt Ester of Rapamycin], the solubility in “Solubility in water” was ~15 mg/mL. For the same compound, the “stability on prolonged exposure to light” value in series [4] is on record as “appears to discolor upon prolonged exposure to light”.

In general, solubility refers to the concentration that dissolves in the medium under given conditions. Low readings indicate little dissolved substance, high ones much dissolved substance.
